Measured values from ChEMBL document CHEMBL3758099, “Melatonergic ligands: Design, synthesis and pharmacological evaluation of novel series of naphthofuranic derivatives” (Eur J Med Chem, 2016).

Columns and labels:
[1] = molecular target: T1, Melatonin receptor type 1A (Homo sapiens, UniProt P48039); assay: Displacement of 2-[125I]iodomelatonin from human MT1 receptor expressed in CHO cell membranes after 120 mins
[2] = molecular target: T1, Melatonin receptor type 1A; assay: Intrinsic activity at human MT1 receptor expressed in CHO cell membranes after 1 hr by [35S]GTPgammaS binding assay; format: functional
Homo sapiens = species on record: Homo sapiens; assay: Selectivity ratio of Ki for human MT1 receptor to Ki for human MT2 receptor
[3] = molecular target: T2, Melatonin receptor type 1B (Homo sapiens, UniProt P49286); assay: Intrinsic activity at human MT2 receptor expressed in CHO cell membranes after 1 hr by [35S]GTPgammaS binding assay; format: functional
T2 sequence (P49286 whole entry): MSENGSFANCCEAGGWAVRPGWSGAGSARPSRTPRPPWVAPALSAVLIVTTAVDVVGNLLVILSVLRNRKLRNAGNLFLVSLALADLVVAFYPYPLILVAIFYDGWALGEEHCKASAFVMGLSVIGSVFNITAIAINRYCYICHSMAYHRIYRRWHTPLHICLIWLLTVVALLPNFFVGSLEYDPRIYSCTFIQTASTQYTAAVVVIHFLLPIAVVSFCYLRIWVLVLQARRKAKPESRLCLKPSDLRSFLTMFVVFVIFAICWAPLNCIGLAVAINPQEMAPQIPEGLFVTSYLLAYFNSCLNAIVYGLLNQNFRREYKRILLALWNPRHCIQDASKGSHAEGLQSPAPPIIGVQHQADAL

[4] = molecular target: T3, 5-hydroxytryptamine receptor 2C (Homo sapiens, UniProt P28335); assay: Binding affinity to 5-HT2C receptor (unknown origin)
T3 sequence (P28335 whole entry): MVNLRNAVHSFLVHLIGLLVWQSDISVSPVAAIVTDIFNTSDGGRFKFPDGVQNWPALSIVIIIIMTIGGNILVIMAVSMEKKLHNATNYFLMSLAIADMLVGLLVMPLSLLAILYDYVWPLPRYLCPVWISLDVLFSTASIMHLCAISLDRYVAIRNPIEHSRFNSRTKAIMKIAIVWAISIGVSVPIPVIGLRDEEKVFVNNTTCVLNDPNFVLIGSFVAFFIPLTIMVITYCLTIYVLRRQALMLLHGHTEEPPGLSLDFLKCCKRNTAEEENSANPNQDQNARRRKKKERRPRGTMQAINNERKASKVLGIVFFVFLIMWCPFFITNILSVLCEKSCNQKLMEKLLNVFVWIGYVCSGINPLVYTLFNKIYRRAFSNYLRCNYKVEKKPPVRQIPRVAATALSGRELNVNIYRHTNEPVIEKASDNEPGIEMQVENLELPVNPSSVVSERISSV

[5] = molecular target: T2, Melatonin receptor type 1B; assay: Displacement of 2-[125I]iodomelatonin from human MT2 receptor expressed in CHO cell membranes after 120 mins

T1 sequence (P48039 whole entry): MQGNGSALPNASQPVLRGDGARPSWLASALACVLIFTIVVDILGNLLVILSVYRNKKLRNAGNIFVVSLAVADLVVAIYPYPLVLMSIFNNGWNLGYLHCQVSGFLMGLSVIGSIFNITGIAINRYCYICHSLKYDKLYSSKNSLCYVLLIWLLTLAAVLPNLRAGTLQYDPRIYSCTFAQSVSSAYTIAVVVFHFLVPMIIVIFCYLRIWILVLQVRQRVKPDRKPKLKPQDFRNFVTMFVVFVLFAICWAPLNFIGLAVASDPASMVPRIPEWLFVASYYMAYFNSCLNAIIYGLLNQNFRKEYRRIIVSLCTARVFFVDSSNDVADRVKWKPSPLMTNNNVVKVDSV

Question: What does the source list for `COc1ccc2ccc3occ(CCNC(C)=O)c3c2c1`?
Answer: Ki [1]: 2.8 nM; EC50 [2]: 4.6 nM; Ratio Ki (Homo sapiens): 31; EC50 [3]: 0.7 nM; Ki [4]: 140 nM; Ki [5]: 0.09 nM

Question: Which Ki [1] does the source give for `COc1ccc2ccc3oc(CCNC(C)=O)cc3c2c1` here?
Answer: 10 nM

Question: What about the EC50 [2] of the same compound?
Answer: > 10000 nM

Question: And the EC50 [3]?
Answer: > 10000 nM

Question: What about the Ki [4] of the same compound?
Answer: > 10000 nM

Question: And the Ki [5]?
Answer: 1.7 nM

Question: What does the source list for `COc1ccc2ccc3occ(CNC(=O)C4CC4)c3c2c1`?
Answer: Ki [1]: 20 nM; EC50 [2]: 1 nM; EC50 [3]: 8.8 nM; Ki [4]: > 10000 nM; Ki [5]: 15 nM

Question: Which Ki [1] does the source give for `CCNC(=O)NCc1cc2c(ccc3ccc(OC)cc32)o1` here?
Answer: 17 nM

Question: What about the EC50 [2] of the same compound?
Answer: > 10000 nM

Question: What about the EC50 [3] of the same compound?
Answer: 10 nM

Question: What about the Ki [4] of the same compound?
Answer: > 10000 nM

Question: What about the Ki [5] of the same compound?
Answer: 4.2 nM

Question: Which results are given for `CCNC(=S)NCc1cc2c(ccc3ccc(OC)cc32)o1`?
Answer: Ki [1]: 140 nM; Ki [4]: 730 nM; Ki [5]: 7 nM

Question: Which results are given for `COc1ccc2ccc3occ(CNC(=O)CF)c3c2c1`?
Answer: Ki [1]: 9.9 nM; EC50 [2]: 29 nM; EC50 [3]: 3.4 nM; Ki [4]: > 10000 nM; Ki [5]: 2.1 nM

Question: With `COc1ccc2ccc3occ(CCNC(=O)C4CC4)c3c2c1` as the compound, how does the Ki [1] read?
Answer: 236 nM

Question: And the EC50 [2]?
Answer: 5.2 nM

Question: What about the EC50 [3] of the same compound?
Answer: 3.2 nM

Question: What about the Ki [4] of the same compound?
Answer: > 1000 nM

Question: And the Ki [5]?
Answer: 13.3 nM

Question: How did the Ki [1] turn out when `CCNC(=O)NCCc1cc2c(ccc3ccc(OC)cc32)o1` was run?
Answer: 210 nM

Question: And the Ki [4]?
Answer: > 10000 nM

Question: What about the Ki [5] of the same compound?
Answer: 46 nM

Question: With `COc1ccc2ccc3oc(CCNC(=O)C4CC4)cc3c2c1` as the compound, how does the Ki [1] read?
Answer: 73 nM

Question: What about the EC50 [2] of the same compound?
Answer: > 10000 nM

Question: What about the EC50 [3] of the same compound?
Answer: 5.8 nM

Question: What about the Ki [4] of the same compound?
Answer: > 10000 nM

Question: What about the Ki [5] of the same compound?
Answer: 11 nM

Question: Which results are given for `COc1ccc2ccc3occ(CNC(=O)C(C)C)c3c2c1`?
Answer: Ki [1]: 158 nM; EC50 [2]: 8.1 nM; EC50 [3]: 8.8 nM; Ki [4]: > 10000 nM; Ki [5]: 24 nM

Question: With `CNC(=O)NCc1cc2c(ccc3ccc(OC)cc32)o1` as the compound, how does the Ki [4] read?
Answer: > 10000 nM

Question: Which results are given for `COc1ccc2ccc3oc(CNC(C)=O)cc3c2c1`?
Answer: Ki [1]: 2.1 nM; EC50 [2]: 7.7 nM; EC50 [3]: 0.98 nM; Ki [4]: > 10000 nM; Ki [5]: 0.4 nM

Question: Which results are given for `COc1ccc2ccc3oc(CNC(=O)C4CC4)cc3c2c1`?
Answer: Ki [1]: 1.9 nM; EC50 [2]: 1 nM; EC50 [3]: 0.98 nM; Ki [4]: > 10000 nM; Ki [5]: 0.6 nM

Question: Which results are given for `COc1ccc2ccc3oc(CNC(=O)CF)cc3c2c1`?
Answer: Ki [1]: 5.7 nM; EC50 [2]: 9.5 nM; EC50 [3]: 1.1 nM; Ki [4]: > 10000 nM; Ki [5]: 0.7 nM

Question: For `CNC(=S)NCc1cc2c(ccc3ccc(OC)cc32)o1`, which Ki [1] is on record?
Answer: 43 nM

Question: What about the Ki [4] of the same compound?
Answer: > 10000 nM

Question: And the Ki [5]?
Answer: 0.8 nM

Question: With `CCNC(=O)NCCc1coc2ccc3ccc(OC)cc3c12` as the compound, how does the Ki [1] read?
Answer: 157 nM

Question: And the EC50 [2]?
Answer: 75 nM

Question: What about the EC50 [3] of the same compound?
Answer: 6.2 nM

Question: What about the Ki [4] of the same compound?
Answer: > 1000 nM

Question: What about the Ki [5] of the same compound?
Answer: 226 nM

Question: For `COc1ccc2ccc3occ(CNC(C)=O)c3c2c1`, which Ki [1] is on record?
Answer: 4.6 nM

Question: What about the EC50 [2] of the same compound?
Answer: 4.8 nM

Question: And the EC50 [3]?
Answer: 1.4 nM

Question: What about the Ki [4] of the same compound?
Answer: > 10000 nM

Question: And the Ki [5]?
Answer: 0.7 nM
